Results: article PMC10652874, “Investigation into the mechanism of action of the antimicrobial peptide epilancin 15X” (Frontiers in Microbiology, 2023)

Legend:
S. carnosus TM300 [1] = assay: Killing kinetics (CFU counting); assay type: cell-based, Staphylococcus carnosus; conditions: S. carnosus TM300, mid-log, 1x and 4x MIC, 30-180 min, triplicate
Method: (§1) S. carnosus TM300 and B. subtilis BSF2470 (1A980) cell cultures were grown to mid-log phase in BHI and LB broth, respectively. […] At each time point, an aliquot of […] treated-culture was serial-diluted and placed on BHI agar plates for S. carnosus and LB agar plates for B. subtilis. The plates were grown for 1 day at 37°C and the colonies were counted. Each experiment was performed in triplicate and untreated cell culture was used as the negative control.

B. subtilis ATCC 6633 = assay: Fluorescence and bright field (Airyscan) microscopy; assay type: cell-based, Bacillus subtilis
Method: Standard microscope slides coated with poly-D-lysine (R&D Systems, 34–392 − 000101) overnight were washed with water and sterilized in ethanol. Overnight bacterial culture was centrifuged at 4,500 ×g and the pellet was resuspended gently three times in fresh PBS to remove the media background. Then 20 μL of cell culture in PBS and 180 μL of PBS were loaded on each slide and incubated at room temperature for 30 min. Next, 1 mL of PBS was used to wash the slides at least five times to remove unadhered cells. A final concentration of 200 nM epilancin 15X-TAMRA in 200 μL of PBS was applied to each slide and incubated at room temperature for 30 min. PBS was used to wash the slides at least five times to wash away unbound Epilancin 15X. A final concentration of 10% formaldehyde (Thermo Scientific, PI28906) and 2.5% glutaraldehyde (Fisher Chemical, O2957–1) in PBS was applied to each slide and incubated for 30 min. Three times 1 mL of PBS was applied to wash away excess fixing solution. A drop of ProLong Glass Antifade Mountant (Invitrogen, P36982) was applied to each slide, covered with a glass coverslip (Ibidi, NC0601315), and dried overnight protected from light. All micrographs were captured using a Zeiss LSM 880 Airyscan microscope (Carl R. Woese Institute for Genomic Biology, UIUC). […]

S. carnosus TM300 [2] = assay: MIC determination in 96-well microtiter plate; assay type: cell-based, Staphylococcus carnosus; conditions: BHI, 37°C, 10^5 CFU/mL, OD600 after 18 h
Method: MIC determination was performed in a 96-well microtiter plate as described previously ([Wu et al., 2019]). Sensitive bacterial culture was grown in the appropriate medium (BHI for S. carnosus; LB for B. subtilis) at 37°C overnight. The culture was diluted to 10^5 CFU/mL in medium in each well. Epilancin 15X or its analog was dissolved in water and serially diluted to obtain final concentrations of 20, 10, 5, 2.5, 1.25, 0.625, 0.3125, 0.156, 0.078, 0.039, 0.019, and 0.009 μM. OD600 readings were obtained after 18 h using a Synergy H4 Hybrid Multi-Mode Microplate Reader (BioTeK). Cell-free untreated medium, and untreated cell culture were used as negative controls. The MIC of nisin against B. subtilis BSF2470 was determined following the same methods.

[3] = tested on: fatty acid biosynthesis in S. carnosus TM300; assay type: cell-based, Staphylococcus carnosus; conditions: S. carnosus TM300, 2× MIC, normalized to OD600, three independent experiments
Method: Radiolabel incorporation experiments were carried out similarly as previously described but using S. carnosus ([Wu et al., 2019]). The OD600 of parallel nonradioactive cultures was measured at each time point to normalize the measured radioactivity and minimize effects due to cell death and growth inhibition. The radiolabeled reagents and their corresponding positive and negative antibiotic controls were as follows. […] All experiments were conducted independently three times.
Thre e in de pen den t ex perime nts of incorporation of (A) 14C- acetic acid into fatty acids, (B) 14C- thymi din e into D NA, (C) 3H-uridi ne into RNA, (D) 14C- lab el ed ami no acids into protei n, and (E) 14C- label ed GlcNAc into cell w all in S. carnosus TM300 cells treated with vario u s antimicro bia l agents. T he p ercent i nco rpo ratio n at 0 min was measured after incubati ng the cel l cultur e with 0.8 μCi/mL radioactive precursors for 15 min. […] Positive controls a re gr een and negative controls are black (cells o nly) an d blu e (co mpo und w ith mo d e o f actio n unr elate d to th e a ssay i n que stio n). T he ra dio activity o f each a nti bio tic - treated cultur e was normalized based on it s OD600 at each time point compared to th e unt reate d ce ll cultur e.

S. carnosus TM300 [4] = assay: Membrane potential study with DiOC2 (flow cytometry); assay type: cell-based, Staphylococcus carnosus; conditions: S. carnosus TM300, 20 min, 0.5x, 1x, 4x MIC, n = 3
Method: Cultures of S. carnosus TM300 were grown to OD600 1.0 and diluted to OD600 0.1 in fresh BHI medium. The culture was then combined with 30 μM 3,3′-diethyloxacarbocyanine (DiOC2, ThermoFisher D14730) and incubated for 20 min. […] Another two tubes were prepared without antibiotic treatment as controls. The culture was analyzed with a BD Biosciences LSR II flow cytometer using excitation at 488 nm with an argon laser and measurement of emission through a band-pass filter at 616/20 nm. A minimum of 30,000 events were detected for each sample. The experiment was repeated three times, and the mean red/green fluorescence ratio was determined.

B. subtilis BSF2470 = assay: Membrane permeability study with propidium iodide (flow cytometry); assay type: cell-based, Bacillus subtilis; conditions: B. subtilis BSF2470, 20 min exposure, 0.5x, 1x, 4x MIC, n = 3
Method: Cultures of S. carnosus TM300 and B. subtilis BSF2470 were grown to OD600 1.0 and diluted to OD600 0.1 in fresh BHI or LB medium, respectively. The culture was then combined with a final concentration of 25 μM PI (ThermoFisher P3566), 1 mM HEPES, and 1 mM glucose. […] Another two tubes were prepared without antibiotic treatment as controls. The culture was analyzed with a BD Biosciences LSR II flow cytometer for S. carnosus and a BD Biosciences LSRFortessa for B. subtilis using excitation at 488 nm with an argon laser and measurement of emission through a band-pass filter at 695/40 nm. A minimum of 30,000 events were detected for each sample. The experiment was repeated three times, and the mean PI uptake value was determined. The results were calibrated such that the mean PI uptake from the 4x MIC nisin-treated cell culture was set as 100% PI uptake.

[5] = tested on: B. subtilis BSF2470 (1A980); assay: Killing kinetics (CFU counting); assay type: cell-based, Bacillus subtilis
Method: as §1

[6] = tested on: S. epidermidis ATCC 12228; assay: MIC determination in 96-well microtiter plate; assay type: cell-based, Staphylococcus epidermidis; conditions: 37°C, 10^5 CFU/mL, OD600 after 18 h
[7] = Liposome leakage assay using flow cytometry (HaloTag / AF488 ligand); assay type: biochemical; conditions: 1 μM peptide, 37°C, 1 h

Substance: Epilancin 15X
- number of colony forming units (CFU) (S. carnosus TM300 [1]): significant decrease
- aggregation phenotype of cells (brightfield) (B. subtilis ATCC 6633): Aggregation and chaining of cells was observed
- MIC (S. carnosus TM300 [2]): 0.16 µM
- fatty acid biosynthesis (14C-acetic acid incorporation) [3]: decrease
- red/green fluorescence ratio of DiOC2 (membrane potential) (S. carnosus TM300 [4]): increase
- PI uptake (membrane disruption) (B. subtilis BSF2470): increase
- growth (colonies) after treatment ([5]; B. subtilis BSF2470, 4x MIC, 90 and 120 minutes, at the dilution factor plated): no growth was observed
- number of colony forming units (CFU) ([5]; B. subtilis BSF2470, mid-log, 1x and 4x MIC, 30-180 min, triplicate): significant decrease
- MIC [6]: 0.62 µM
- fluorescence signal (pore formation) ([7]; POPC-cholesterol liposomes with 0.1% lipid II): did not induce pore formation
- fluorescence signal (pore formation) compared to buffer control ([7]; POPC-cholesterol liposomes without lipid II): no increase in fluorescence signal
